Results reported in PubChem BioAssay (NCI).
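Step 1: Grow cells in 96-well plates. Step 2: Expose to compound for 48 hours at 5 concentrations. Step 3: Interpolate endpoints linearly; if unreached, use highest concentration. Here, GI50 denotes the concentration required for 50% inhibition of growth. Definition used: TGI = concentration required for complete inhibition of growth.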

Legend:
Assay in all cases: growth of human tumour cells (NCI), 48 h
[1] = tested on: 786-0 renal
[2] = tested on: A498 renal
[3] = tested on: A549 NSCLC
[4] = tested on: ACHN renal
[5] = tested on: BT-549 breast
[6] = tested on: CAKI-1 renal
[7] = tested on: CCRF-CEM leukemia
[8] = tested on: COLO 205 colon
[9] = tested on: DU-145 prostate
[10] = tested on: EKVX NSCLC
[11] = tested on: HCC-2998 colon
[12] = tested on: HCT-116 colon
[13] = tested on: HCT-15 colon
[14] = tested on: HL-60(TB) leukemia
[15] = tested on: HOP-62 NSCLC
[16] = tested on: HOP-92 NSCLC
[17] = tested on: HS 578T breast
[18] = tested on: HT29 colon
[19] = tested on: IGROV1 ovarian
[20] = tested on: K-562 leukemia
[21] = tested on: KM12 colon
[22] = tested on: LOX IMVI melanoma
[23] = tested on: M14 melanoma
[24] = tested on: MALME-3M melanoma
[25] = tested on: MCF7 breast
[26] = tested on: MDA-MB-231 breast
[27] = tested on: MDA-MB-435
[28] = tested on: MOLT-4 leukemia
[29] = tested on: NCI-H226 lung
[30] = tested on: NCI-H23 lung
[31] = tested on: NCI-H460 lung
[32] = tested on: NCI-H522 lung
[33] = tested on: NCI/ADR-RES ovarian
[34] = tested on: OVCAR-3 ovarian
[35] = tested on: OVCAR-4 ovarian
[36] = tested on: OVCAR-5 ovarian
[37] = tested on: OVCAR-8 ovarian
[38] = tested on: PC-3 prostate
[39] = tested on: RPMI-8226 leukemia
[40] = tested on: RXF 393 renal
[41] = tested on: SF-268 CNS
[42] = tested on: SF-295 CNS
[43] = tested on: SF-539 CNS
[44] = tested on: SK-MEL-2 melanoma
[45] = tested on: SK-MEL-28 melanoma
[46] = tested on: SK-MEL-5 melanoma
[47] = tested on: SK-OV-3 ovarian
[48] = tested on: SN12C renal
[49] = tested on: SNB-19 CNS
[50] = tested on: SNB-75 CNS
[51] = tested on: SR leukemia
[52] = tested on: SW-620 colon
[53] = tested on: T-47D breast
[54] = tested on: TK-10 renal
[55] = tested on: U251 CNS
[56] = tested on: UACC-257 melanoma
[57] = tested on: UACC-62 melanoma
[58] = tested on: UO-31 renal

COc1ccc(/C=c2\sc3n(c2=O)C2C(NN=3)N(C)C(=O)N2C)cc1 (stereo unspecified)
GI50 [1]: 492 nM | TGI [1]: > 100000 nM | GI50 [2]: 113 nM | TGI [2]: 1490 nM | GI50 [3]: 1350 nM | TGI [3]: > 100000 nM | GI50 [4]: 1530 nM | TGI [4]: > 100000 nM | GI50 [5]: 589 nM | TGI [5]: > 100000 nM | GI50 [6]: 563 nM | TGI [6]: > 100000 nM | GI50 [7]: 426 nM | TGI [7]: > 100000 nM | GI50 [8]: 1090 nM | TGI [8]: > 100000 nM | GI50 [9]: 1320 nM | TGI [9]: > 100000 nM | GI50 [10]: 1720 nM | TGI [10]: > 100000 nM | GI50 [11]: 1500 nM | TGI [11]: > 100000 nM | GI50 [12]: 483 nM | TGI [12]: > 100000 nM | GI50 [13]: 428 nM | TGI [13]: > 100000 nM | GI50 [14]: 501 nM | TGI [14]: 1960 nM | GI50 [15]: 1290 nM | TGI [15]: > 100000 nM | GI50 [16]: 513 nM | TGI [16]: > 100000 nM | GI50 [17]: 659 nM | TGI [17]: 8960 nM | GI50 [18]: 560 nM | TGI [18]: > 100000 nM | GI50 [19]: 1320 nM | TGI [19]: > 100000 nM | GI50 [20]: 331 nM | TGI [20]: > 100000 nM | GI50 [21]: 588 nM | TGI [21]: > 100000 nM | GI50 [22]: 1630 nM | TGI [22]: > 100000 nM | GI50 [23]: 344 nM | TGI [23]: 5170 nM | GI50 [24]: 1190 nM | TGI [24]: > 100000 nM | GI50 [25]: 384 nM | TGI [25]: > 100000 nM | GI50 [26]: 2770 nM | TGI [26]: > 100000 nM | GI50 [27]: 200 nM | TGI [27]: 759 nM | GI50 [28]: 1240 nM | TGI [28]: > 100000 nM | GI50 [29]: 1180 nM | TGI [29]: > 100000 nM | GI50 [30]: 1750 nM | TGI [30]: > 100000 nM | GI50 [31]: 933 nM | TGI [31]: > 100000 nM | GI50 [32]: 877 nM | TGI [32]: > 100000 nM | GI50 [33]: 579 nM | TGI [33]: > 40900 nM | GI50 [34]: 481 nM | TGI [34]: 3530 nM | GI50 [35]: > 100000 nM | TGI [35]: > 100000 nM | GI50 [36]: 2250 nM | TGI [36]: > 100000 nM | GI50 [37]: 1750 nM | TGI [37]: > 100000 nM | GI50 [38]: 444 nM | TGI [38]: > 100000 nM | GI50 [39]: 455 nM | TGI [39]: > 19600 nM | GI50 [40]: 603 nM | TGI [40]: 2750 nM | GI50 [41]: > 100000 nM | TGI [41]: > 100000 nM | GI50 [42]: 917 nM | TGI [42]: > 24500 nM | GI50 [43]: 780 nM | TGI [43]: 6040 nM | GI50 [44]: 2310 nM | TGI [44]: > 100000 nM | GI50 [45]: 2270 nM | TGI [45]: > 100000 nM | GI50 [46]: 660 nM | TGI [46]: > 100000 nM | GI50 [47]: 2130 nM | TGI [47]: > 100000 nM | GI50 [48]: 1630 nM | TGI [48]: > 100000 nM | GI50 [49]: 1300 nM | TGI [49]: > 100000 nM | GI50 [50]: 1170 nM | TGI [50]: 6770 nM | GI50 [51]: 316 nM | TGI [51]: > 100000 nM | GI50 [52]: 747 nM | TGI [52]: > 100000 nM | GI50 [53]: 1560 nM | TGI [53]: > 100000 nM | GI50 [54]: > 100000 nM | TGI [54]: > 100000 nM | GI50 [55]: 1440 nM | TGI [55]: > 100000 nM | GI50 [56]: > 100000 nM | TGI [56]: > 100000 nM | GI50 [57]: 578 nM | TGI [57]: > 100000 nM | GI50 [58]: 1860 nM | TGI [58]: > 100000 nM
